Results reported in patent publication US9790174B2, “Kinase inhibitors” (Respivert Limited, priority 2013, dated 2017).

Legend:
d-U937 cells = assay: Accumulation of β catenin in d-U937 cells; type: cell-based, human; details: relative to Reference Compound at 1 μg/mL
Experimental: U937 cells, a human monocytic cell line, are differentiated into macrophage-type cells by incubation with PMA (100 ng/mL) for between 48 to 72 hr. The cells are then incubated with either final concentrations of test compound or vehicle for 18 hr. The induction of β-catenin by the test compounds is stopped by replacing the media with 4% formaldehyde solution. Endogenous peroxide activity is neutralised by incubating with quenching buffer (100 μL, 0.1% sodium azide, 1% H2O2 in PBS with 0.05% Tween-20) for 20 min. The cells are washed with washing buffer (200 pt; PBS containing 0.05% Tween-20) and incubated with blocking solution (200 pt; 5% milk in PBS) for 1 hr, re-washed with washing buffer (200 pt) and then incubated overnight with anti-β-catenin antibody solution (50 μL) in 1% BSA/PBS (BD, Oxford, UK).
After washing with washing buffer (3×200 pt; PBS containing 0.05% Tween-20), cells are incubated with a HRP-conjugated secondary antibody solution (100 μL) in 1% BSA/PBS (Dako, Cambridge, UK) and the resultant signal is determined colourimetrically (OD: 450 nm with a reference wavelength of 655 nm) using TMB substrate (50 μL; R&D Systems, Abingdon, UK). This reaction is stopped by addition of 1N H2SO4 solution (50 μL). Cells are then washed with washing buffer and 2% crystal violet solution (50 μL) is applied for 30 min. After washing with washing buffer (3×200 μL), 1% SDS (100 μL) is added to each well and the plates are shaken lightly for 1 hr prior to measuring the absorbance at 595 nm (Varioskan® Flash, Thermo-Fisher Scientific).
The measured OD450-655 readings are corrected for cell number by dividing the OD450-655 by the OD595 readings.

B-Raf = B-Raf (Homo sapiens (Human), UniProt P15056); assay: KINOMEscan binding of kinase to standard ligand
Experimental: (§1) Kinase enzyme binding activities of compounds disclosed herein may be determined using a proprietary assay which measures active site-directed competition binding to an immobilized ligand (Fabian, M. A. et al., Nature Biotechnol., 2005, 23:329-336). These assays may be conducted by DiscoverX (formerly Ambit; San Diego, Calif.). The percentage inhibition produced by incubation with a test compound may be calculated relative to the non-inhibited control.

B-Raf (V600E) = B-Raf (V600E) (Homo sapiens (Human), UniProt P15056, V600E); assay: KINOMEscan binding of kinase to standard ligand
Experimental: as §1

non-mutant kinases = assay: KinomeScan selectivity scores; type: binding; details: for number of individual kinase hits S(1): % Ctrl <1; for number of individual kinase hits S(10): % Ctrl <10; for number of individual kinase hits S(35): % Ctrl <35
Experimental: These assays may be conducted by DiscoverX (formerly Ambit; San Diego, Calif.). The percentage inhibition produced by incubation with a test compound may be calculated relative to the non-inhibited control.

TNBS-induced colitis = TNBS-induced colitis in mice; type: in vivo, BDF1 mice; details: conducted over 2 days; oral
Experimental: Non-fasted, 10-12 week old, male BDF1 mice are dosed by oral gavage twice daily with either vehicle (5 mL/kg), reference item (Budesonide 2.5 mg/kg) or test compound (1 or 5 mg/kg) one day before (Day −1) stimulation of the inflammatory response by treatment with 2,4,6-trinitrobenzenesulphonic acid (TNBS) (15 mg/mL in 50% ethanol/50% saline). On Day 0 of the study TNBS (200 μL) is administered intra-colonically via a plastic catheter with BID dosing of the vehicle, reference or test compound continuing for 2 or 4 days. During the study, animals are weighed every day and stool observations are made and recorded as a score, based on stool consistency. At the time of sacrifice on Day 2 (or Day 4), the large intestine is removed and the length and weight recorded. Sections of the colon are taken for histopathology scoring to determine disease severity.

[1] = test system: endotoxin-induced uveitis; assay: Endotoxin-induced uveitis in rats; type: in vivo, Lewis rats; details: rats treated with intravitreal endotoxin LPS
Experimental: Male, Lewis rats (6-8 weeks old, Charles River UK Limited) are housed in cages of 3 at 19-21° C. with a 12 h light/dark cycle (07:00/19:00) and fed a standard diet of rodent chow and water ad libitum. Non-fasted rats are weighed, individually identified on the tail with a permanent marker, and receive a single intravitreal administration into the right vitreous humor (5 μL dose volume) of 100 ng/animal of LPS (Escherichia coli 0111:B4 prepared in PBS, Sigma Aldrich, UK) using a 32-gauge needle. Untreated rats are injected with PBS. […] Following euthanasia, the right eye of each animal is enucleated and dissected into front (anterior) and back (posterior) sections around the lens. Each section is weighed and homogenised in 500 μL of sterile phosphate buffered saline followed by 20 minutes centrifugation at 12000 rpm at 4° C.

[2] = test system: Salmonella typhimurium, strains TA98 and TA100; assay: Mutagenicity assessment (bacterial reverse mutation screen); type: cell-based; details: TA98 and TA100, presence or absence of S-9 mix
Experimental: Studies were conducted by Sequani (Ledbury, Herefordshire, UK) to assess compounds of the invention for their ability to induce mutations in two histidine dependent auxotrophic mutants of Salmonella typhimurium, strains TA98 and TA100 in vitro.
The mutation screen was conducted using the plate incorporation method and was performed in both the presence and absence of S-9 mix (a liver post-mitochondrial fraction derived from the livers of Aroclor 1254 treated rats). The bacteria were exposed to test compounds dissolved in dimethylsulphoxide, which solvent was also used as the negative control. The dose levels used were 0.32, 1.6, 8, 40, 200, 1000 or 5000 μg/plate.

[3] = test system: intestinal mucosa biopsies from ulcerative colitis patients; assay: Human biopsy assay (cytokine release from intestinal mucosa biopsies); type: cell-based; details: 1 μg/mL, 24 hours
Experimental: Intestinal mucosa biopsies are obtained from the inflamed regions of the colons of IBD patients. The biopsy material is cut into small pieces (2-3 mm) and placed on steel grids in an organ culture chamber at 37° C. in a 5% CO2/95% O2 atmosphere in serum-free media. DMSO control or test compounds at the desired concentration are added to the tissue and incubated for 24 hr in the organ culture chamber. The supernatant is harvested for determination of IL-6, IL-8, IL-1β and TNFα levels by R&D ELISA.

[4] = test system: adoptive transfer colitis; assay: Adoptive transfer in mice; type: in vivo, SCID mice; details: for % Inhibition: colon weight:length, induction window between naïve and vehicle animals; for levels of pro-inflammatory cytokines in samples of colon tissue: adoptive transfer model
Experimental: On Study day 0, female Balb/C mice are terminated and spleens obtained for CD45RB^high cell isolation (Using SCID IBD cell Separation protocol). Approximately 4×10^5 cells/mL CD45RB^high cells are then injected intraperitoneally (100 μL/mouse) into female SCID animals. On study day 14, mice are weighed and randomized into treatment groups based on body weight. On Day 14, compounds are administered BID, via oral gavage, in a peanut oil vehicle at the dose levels outlined below in Tables 6a and 6b and a dose volume of 5 mL/kg. Treatment continues until study day 42, at which point the animals are necropsied 4 hours after the morning administration. The colon length and weight are recorded and used as a secondary endpoint in the study as a measurement of colon oedema. The colon is then divided into six cross-sections, four of which are used for histopathology scoring (primary endpoint) and two are homogenised for cytokine analysis. Data shown is the % inhibition of the induction window between nave animals and vehicle animals, where higher inhibition implies closer to the non-diseased, nave, phenotype.

Sequence of B-Raf (P15056 whole entry): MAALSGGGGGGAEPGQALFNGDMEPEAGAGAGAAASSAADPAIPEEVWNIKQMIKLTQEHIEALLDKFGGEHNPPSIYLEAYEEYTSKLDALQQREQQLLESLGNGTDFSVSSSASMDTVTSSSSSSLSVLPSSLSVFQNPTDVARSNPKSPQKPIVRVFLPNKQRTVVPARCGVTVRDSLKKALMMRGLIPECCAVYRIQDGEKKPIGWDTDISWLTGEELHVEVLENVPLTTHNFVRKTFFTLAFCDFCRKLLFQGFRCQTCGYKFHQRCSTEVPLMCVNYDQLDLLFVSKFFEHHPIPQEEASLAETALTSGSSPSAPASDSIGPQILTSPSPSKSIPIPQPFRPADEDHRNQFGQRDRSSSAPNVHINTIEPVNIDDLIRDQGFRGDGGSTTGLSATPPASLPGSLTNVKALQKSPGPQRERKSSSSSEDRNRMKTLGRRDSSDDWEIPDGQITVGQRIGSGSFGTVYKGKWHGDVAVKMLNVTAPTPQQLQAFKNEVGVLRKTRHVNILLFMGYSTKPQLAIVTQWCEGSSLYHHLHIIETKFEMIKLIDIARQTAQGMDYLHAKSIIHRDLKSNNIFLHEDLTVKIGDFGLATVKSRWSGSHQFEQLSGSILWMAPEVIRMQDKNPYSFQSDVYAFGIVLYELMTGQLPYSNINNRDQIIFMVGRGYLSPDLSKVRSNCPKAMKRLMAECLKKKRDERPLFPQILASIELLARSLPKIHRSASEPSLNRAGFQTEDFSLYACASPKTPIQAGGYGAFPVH
Sequence of B-Raf (V600E) (P15056 whole entry V600E): as the sequence (P15056 whole entry) above, with V600E counted along it

For `COCCOCCOCCOc1cc(Nc2nccc(Oc3ccc(NC(=O)Nc4cc(C(C)(C)C)cc(NS(=O)(=O)N5CCOCC5)c4OC)c4ccccc34)n2)cc(OC)c1` [83(b), N-(5-(tert-butyl)-2-methoxy-3-(3-(4-((2-((3-methoxy-5-(2-(2-(2-methoxyethoxy)ethoxy)-ethoxy)phenyl)amino)pyrimidin-4-yl)oxy)naphthalen-1-yl)ureido)phenyl)morpholine-4-sulfonamide], which “% β-catenin induction” value (d-U937 cells; test compound 10 μg/mL) is on record?
Its value is −6%.

How did the “effect on the binding of B-Raf to its standard ligand” value (B-Raf) turn out when `COc1c(NC(=O)Nc2ccc(Oc3ccnc(Nc4ccccc4)c3)c3ccccc23)cc(C(C)(C)C)cc1C(=O)NC1COC1` [Example 75, 5-(tert-Butyl)-2-methoxy-N-(oxetan-3-yl)-3-(3-(4-((2-(phenylamino)pyridin-4-yl)oxy)-naphthalen-1-yl)ureido)benzamide] was run?
Its value is “did not have any significant effect”.

What about the “effect on the binding of B-Raf (V600E) to its standard ligand” value (B-Raf (V600E)) of the same compound?
The value was “did not have any significant effect”.

What about the “number of individual kinase hits S(1)” value (non-mutant kinases; 50 nM) of the same compound?
The value was 2.

What about the “number of individual kinase hits S(10)” value (non-mutant kinases; 50 nM) of the same compound?
The value was 14.

And the “number of individual kinase hits S(35)” value (non-mutant kinases; 50 nM)?
The value was 39.

What about the “number of individual kinase hits S(1)” value (non-mutant kinases; 500 nM) of the same compound?
The value was 15.

What about the “number of individual kinase hits S(10)” value (non-mutant kinases; 500 nM) of the same compound?
The value was 55.

And the “number of individual kinase hits S(35)” value (non-mutant kinases; 500 nM)?
The value was 91.

What about the “selectivity compared to the Reference Compound” value (non-mutant kinases; evidenced by lower selectivity scores) of the same compound?
Its value is “substantially improved selectivities”.

And the “activity in TNBS model of colonic inflammation (histopathology analysis)” value (TNBS-induced colitis)?
Its value is “displayed substantial activity”.

What about the “cytokine levels in anterior and posterior segments of the eyes” value [1] of the same compound?
Its value is “significantly reduced cytokine levels”.

And the “increases in revertant colonies” value [2]?
Its value is “no dose-related or statistically significant increases in revertant colonies”.

How did the “% β-catenin induction” value (d-U937 cells; test compound 5 μg/mL) turn out when `C#Cc1cc(Nc2cc(Oc3ccc(NC(=O)Nc4cc(C(C)(C)C)cc(NS(C)(=O)=O)c4OC)c4ccccc34)ccn2)cc(C(=O)NCCOCCOCCOC)c1` [Example 54, 3-((4-((4-(3-(5-(tert-Butyl)-2-methoxy-3-(methylsulfonamido)phenyl)ureido)naphthalen-1-yl)oxy)pyridin-2-yl)amino)-5-ethynyl-N-(2-(2-(2-methoxyethoxy)ethoxy)ethyl)benzamide] was run?
Its value is 5%.

For `C#Cc1cc(Nc2cc(Oc3ccc(NC(=O)Nc4cc(C(C)(C)C)cc(NS(C)(=O)=O)c4OC)c4ccccc34)ccn2)cc(C(=O)N[C@H](C)COCCOCCOC)c1` [Example 68, (R)-3-((4-((4-(3-(5-(tert-Butyl)-2-methoxy-3-(methylsulfonamido)phenyl)ureido)-naphthalen-1-yl)oxy)pyridin-2-yl)amino)-5-ethynyl-N-(1-(2-(2-methoxyethoxy)ethoxy)-propan-2-yl)benzamide], which “% β-catenin induction” value (d-U937 cells; test compound 5 μg/mL) is on record?
The value was 2%.

For `COc1cc(Nc2cc(Oc3ccc(NC(=O)Nc4cc(C(C)(C)C)cc(NS(C)(=O)=O)c4OC)c4ccccc34)ccn2)cc(C(=O)NCCN2CCOCC2)c1` [Example 27, 3-((4-((4-(3-(5-(tert-Butyl)-2-methoxy-3-(methylsulfonamido)phenyl)ureido)naphthalen-1-yl)oxy)pyridin-2-yl)amino)-5-methoxy-N-(2-morpholinoethyl)benzamide], which “effect on the binding of B-Raf to its standard ligand” value (B-Raf) is on record?
Its value is “did not have any significant effect”.

And the “effect on the binding of B-Raf (V600E) to its standard ligand” value (B-Raf (V600E))?
The value was “did not have any significant effect”.

And the “cytokine (IL-1β, IL-6 and IL-8) release compared to the DMSO control” value [3]?
The value was “significantly inhibited”.

What about the “activity in TNBS model of colonic inflammation (histopathology analysis)” value (TNBS-induced colitis) of the same compound?
Its value is “displayed substantial activity”.

What about the “% Inhibition” value ([4]; 3 mg/kg BID oral gavage) of the same compound?
The value was 99%.

And the “levels of pro-inflammatory cytokines in samples of colon tissue” value [4]?
Its value is “significantly reduced levels of pro-inflammatory cytokines”.

What about the “cytokine levels in anterior and posterior segments of the eyes” value [1] of the same compound?
The value was “significantly reduced cytokine levels”.

What about the “increases in revertant colonies” value [2] of the same compound?
Its value is “no dose-related or statistically significant increases in revertant colonies”.

What does the source list for `COCCOCCOCCOc1cc(Nc2nccc(Oc3ccc(NC(=O)Nc4cc(C(C)(C)C)cc(NS(C)(=O)=O)c4OC)c4ccccc34)n2)cc(OC)c1` [Example 4, N-(5-(tert-Butyl)-2-methoxy-3-(3-(4-((2-((3-methoxy-5-(2-(2-(2-methoxyethoxy)ethoxy)-ethoxy)phenyl)amino)pyrimidin-4-yl)oxy)naphthalen-1-yl)ureido)phenyl)methanesulfonamide]?
effect on the binding of B-Raf to its standard ligand (B-Raf): did not have any significant effect; effect on the binding of B-Raf (V600E) to its standard ligand (B-Raf (V600E)): did not have any significant effect; cytokine (IL-1β, IL-6 and IL-8) release compared to the DMSO control [3]: significantly inhibited; activity in TNBS model of colonic inflammation (histopathology analysis) (TNBS-induced colitis): displayed substantial activity; % Inhibition ([4]; 0.3 mg/kg BID oral gavage): 62%; % Inhibition ([4]; 1 mg/kg BID oral gavage): 110%; levels of pro-inflammatory cytokines in samples of colon tissue [4]: significantly reduced levels of pro-inflammatory cytokines; cytokine levels in anterior and posterior segments of the eyes [1]: significantly reduced cytokine levels; increases in revertant colonies [2]: no dose-related or statistically significant increases in revertant colonies
